Where a SMILES comes first, the peptide text is derived from it. Bridges are numbered along the chain shown (N, C = ends). Roman numbers before positions name the chains, in order. [ ]: non-standard residue; d: D form. Tle = CC(C)(C)[C@H](N)C(=O)O; dDab = NCC[C@@H](N)C(=O)O; Nle = CCCC[C@H](N)C(=O)O; Orn = NCCC[C@H](N)C(=O)O; Dab = NCC[C@H](N)C(=O)O; dAze = O=C(O)[C@H]1CCN1; Sar = CNCC(=O)O
Tests used:
Assay type in all cases: cell-based
[1] = test system: human red blood cells (hRBC); test: Hemolysis of human red blood cells; conditions: red cells of human, 1 h
Outline: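 Percent hemolysis = OD540 of peptide-treated supernatant relative to the 2.5% Triton X-100 (100%) control, PBS containing 0.001% acetic acid defining 0%. Peptides tested at 100 μg/mL against 20% (v/v) washed human RBC, 1 h, 37 °C, 300 rpm.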

[2] = test system: Pseudomonas aeruginosa ATCC 27853; conditions: ATCC 27853
Outline: (§1)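 MIC in μg/mL; CLSI microdilution; cation-adjusted Mueller-Hinton II with Polysorbate 80 (0.002%); 10^6 CFU/mL; 35° C, 18-20 h.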

[3] = test system: Acinetobacter baumannii 872842; conditions: 872842
[4] = test system: Klebsiella pneumoniae 968733; conditions: 968733
[5] = test system: Escherichia coli ATCC 25922; conditions: ATCC 25922
Outline: as §1

[6] = test system: Klebsiella pneumoniae SSI #3010; conditions: SSI #3010
Outline: as §1

[7] = test system: Acinetobacter baumannii DSM 30008; conditions: DSM 30008
Outline: as §1

[8] = test system: Escherichia coli 926415; conditions: 926415

Row | Pseudomonas aeruginosa ATCC 27853 MIC [2] [µg/mL] | Acinetobacter baumannii 872842 MIC [3] [µg/mL] | Klebsiella pneumoniae 968733 MIC [4] [µg/mL] | Escherichia coli ATCC 25922 MIC [5] [µg/mL] | Klebsiella pneumoniae SSI #3010 MIC [6] [µg/mL] | Acinetobacter baumannii DSM 30008 MIC [7] [µg/mL] | Escherichia coli 926415 MIC [8] [µg/mL] | Compound | Hemolysis at 100 μg/mL [1]; 100 [%] | Hemolysis at 100 μg/mL ([1]; 100 μg/mL) [%]
1 | 1 | 4 | 2 | 2 | 1 | 1 | 1 | CCCC[C@@H]1NC(=O)[C@@H]2CCCN2C(=O)[C@H]2CCCN2C(=O)[C@H](CO)NC(=O)[C@H](C)NC(=O)[C@H](C(C)(C)C)NC(=O)[C@H](CCN)NC(=O)[C@H](Cc2c[nH]c3ccccc23)NC(=O)[C@H](CCN)NC(=O)[C@H](CCC(=O)N[C@@H](CCN)C(=O)N[C@H](CCN)C(=O)N[C@H]2CCNC(=O)[C@H]([C@@H](C)O)NC(=O)[C@H](CCN)NC(=O)[C@H](CCN)NC(=O)[C@H](CC(C)C)NC(=O)[C@@H](Cc3ccccc3)NC(=O)[C@H](CCN)NC2=O)NC(=O)[C@H](CCCN)NC(=O)[C@H](CCN)NC(=O)[C@H](Cc2ccc(O)cc2)NC(=O)[C@H](CO)NC1=O [Ex. 74] (I: cyclo([Nle]SY[Dab][Orn]E[Dab]W[Dab][Tle]AS[dP]P) / II: [Dab][dDab][Dab][Dab][dF]L[Dab][Dab]T; amide I:6-II:N; lactam II:3-II:C) | 2 | 
2 | 0.25 | 2 | 4 | 0.5 | 0.5 | 0.5 | 1 | CCCC[C@@H]1NC(=O)[C@@H]2CCCN2C(=O)[C@H]2CCCN2C(=O)[C@H](CO)NC(=O)[C@H](C)NC(=O)[C@H](C(C)(C)C)NC(=O)[C@H](CCN)NC(=O)[C@H](Cc2c[nH]c3ccccc23)NC(=O)[C@H](CCC(=O)N[C@H](C(=O)N[C@@H](CCN)C(=O)N[C@H]2CCNC(=O)[C@H]([C@@H](C)O)NC(=O)[C@H](CCN)NC(=O)[C@H](CCN)NC(=O)[C@H](CC(C)C)NC(=O)[C@@H](Cc3ccccc3)NC(=O)[C@H](CCN)NC2=O)[C@@H](C)O)NC(=O)[C@@H](CCN)NC(=O)[C@H](CCCN)NC(=O)[C@H](CCN)NC(=O)[C@H](Cc2ccc(O)cc2)NC(=O)[C@H](CO)NC1=O [Ex. 75] (I: cyclo([Nle]SY[Dab][Orn][dDab]EW[Dab][Tle]AS[dP]P) / II: T[Dab][Dab][Dab][dF]L[Dab][Dab]T; amide I:7-II:N; lactam II:3-II:C) | <1 | 
3 | 0.5 | 0.5 | 2 | 2 | 2 | 1 | 0.5 | CC(C)C[C@@H]1NC(=O)[C@@H](CC(C)C)NC(=O)[C@H](CCN)NC(=O)[C@@H](NC(=O)[C@H](CCN)NC(=O)CN(C)C(=O)C[C@@H]2NC(=O)[C@H](CCN)NC(=O)[C@H](Cc3ccc(O)cc3)NC(=O)[C@H](CO)NC(=O)[C@H](CC(C)C)NC(=O)[C@@H]3CCCN3C(=O)[C@H]3CCCN3C(=O)[C@H](CO)NC(=O)[C@H](C)NC(=O)[C@H](C(C)C)NC(=O)[C@H](CCN)NC(=O)[C@H](Cc3c[nH]c4ccccc34)NC(=O)[C@H](CCN)NC(=O)[C@@H](CCN)NC2=O)CCNC(=O)[C@H]([C@@H](C)O)NC(=O)[C@H](CCN)NC(=O)[C@H](CCN)NC1=O [Ex. 76] (I: cyclo(W[Dab]VAS[dP]PLSY[Dab]D[dDab][Dab]) / II: [Sar][Dab][Dab][Dab][dL]L[Dab][Dab]T; amide I:12-II:N; lactam II:3-II:C) | 1 | 
4 | 1 | 2 | 2 | 1 | 1 | 1 | 0.5 | CC(C)C[C@@H]1NC(=O)[C@@H](CC(C)C)NC(=O)[C@H](CCN)NC(=O)[C@@H](NC(=O)[C@H](CCN)NC(=O)CN(C)C(=O)C[C@@H]2NC(=O)[C@H](CCCN)NC(=O)[C@H](CCN)NC(=O)[C@H](Cc3ccc(O)cc3)NC(=O)[C@H](CO)NC(=O)[C@H](CC(C)C)NC(=O)[C@@H]3CCCN3C(=O)[C@H]3CCCN3C(=O)[C@H](Cc3ccc(O)cc3)NC(=O)[C@H](C)NC(=O)[C@H](C(C)(C)C)NC(=O)[C@H](CCN)NC(=O)[C@H](Cc3c[nH]c4ccccc34)NC(=O)[C@H](CCN)NC2=O)CCNC(=O)[C@H]([C@@H](C)O)NC(=O)[C@H](CCN)NC(=O)[C@H](CCN)NC1=O [Ex. 77] (I: cyclo(LSY[Dab][Orn]D[Dab]W[Dab][Tle]AY[dP]P) / II: [Sar][Dab][Dab][Dab][dL]L[Dab][Dab]T; amide I:6-II:N; lactam II:3-II:C) | <1 | 
5 | 0.25 | 1 | 0.5 | 0.5 | 0.5 | 0.5 | 0.5 | CCCC[C@@H]1NC(=O)[C@@H]2CCCN2C(=O)[C@H]2CCCN2C(=O)[C@H](CO)NC(=O)[C@H](C)NC(=O)[C@H](C(C)(C)C)NC(=O)[C@H](CCN)NC(=O)[C@H](Cc2c[nH]c3ccccc23)NC(=O)[C@H](CCN)NC(=O)[C@H](CCC(=O)N[C@@H](CCN)C(=O)N[C@H](CCN)C(=O)N[C@H]2CCNC(=O)[C@H]([C@@H](C)O)NC(=O)[C@H](CCN)NC(=O)[C@H](CCN)NC(=O)[C@H](CC(C)C)NC(=O)[C@@H](CC(C)C)NC(=O)[C@H](CCN)NC2=O)NC(=O)[C@H](CCCN)NC(=O)[C@H](CCN)NC(=O)[C@H](Cc2ccc(O)cc2)NC(=O)[C@H](CO)NC1=O [Ex. 78] (I: cyclo([Nle]SY[Dab][Orn]E[Dab]W[Dab][Tle]AS[dP]P) / II: [Dab][dDab][Dab][Dab][dL]L[Dab][Dab]T; amide I:6-II:N; lactam II:3-II:C) | 1 | 
6 | 0.25 | 0.5 | 1 | 0.25 | 0.25 | 0.5 | 0.25 | CC(C)C[C@@H]1NC(=O)[C@@H](Cc2ccccc2)NC(=O)[C@H](CCN)NC(=O)[C@@H](NC(=O)[C@H](CCN)NC(=O)[C@@H](NC(=O)[C@H](CCN)NC(=O)CC[C@@H]2NC(=O)[C@H](CCN)NC(=O)[C@H](Cc3ccc(O)cc3)NC(=O)[C@H]([C@@H](C)O)NC(=O)[C@H](C(C)C)NC(=O)[C@@H]3CCCN3C(=O)[C@H]3CCN3C(=O)[C@H](CO)NC(=O)[C@H](C)NC(=O)[C@H](C(C)(C)C)NC(=O)[C@H](CCN)NC(=O)[C@H](Cc3c[nH]c4ccccc34)NC(=O)[C@H](CCN)NC(=O)[C@@H](CCN)NC2=O)[C@@H](C)O)CCNC(=O)[C@H]([C@@H](C)O)NC(=O)[C@H](CCN)NC(=O)[C@H](CCN)NC1=O [Ex. 80] (I: cyclo(W[Dab][Tle]AS[dAze]PVTY[Dab]E[dDab][Dab]) / II: [Dab]T[Dab][Dab][Dab][dF]L[Dab][Dab]T; amide I:12-II:N; lactam II:4-II:C) | <1 | 

Row | Compound | Pseudomonas aeruginosa ATCC 27853 MIC [2] [µg/mL] | Acinetobacter baumannii 872842 MIC [3] [µg/mL] | Klebsiella pneumoniae 968733 MIC [4] [µg/mL] | Escherichia coli ATCC 25922 MIC [5] [µg/mL] | Klebsiella pneumoniae SSI #3010 MIC [6] [µg/mL] | Acinetobacter baumannii DSM 30008 MIC [7] [µg/mL] | Escherichia coli 926415 MIC [8] [µg/mL] | Hemolysis at 100 μg/mL [1]; 100 [%] | Hemolysis at 100 μg/mL ([1]; 100 μg/mL) [%]
7 | CC(C)C[C@@H]1NC(=O)[C@@H](CC(C)C)NC(=O)[C@H](CCN)NC(=O)[C@@H](NC(=O)[C@H](CCN)NC(=O)[C@H](CCN)NC(=O)[C@@H]2CCC(=O)N[C@@H](CCN)C(=O)N[C@@H](Cc3c[nH]c4ccccc34)C(=O)N[C@H]3CSSC[C@H](NC(=O)[C@H](Cc4ccc(O)cc4)NC(=O)[C@H](CO)NC(=O)[C@H](CC(C)C)NC(=O)[C@@H]4CCCN4C(=O)[C@H]4CCCN4C(=O)[C@H](CO)NC(=O)[C@H](C)NC(=O)[C@H](C(C)C)NC3=O)C(=O)NCC(=O)N2)CCNC(=O)[C@H]([C@@H](C)O)NC(=O)[C@H](CCN)NC(=O)[C@H](CCN)NC1=O [Ex. 79] ([Dab]WCVAS[dP]PLSYCGE[Dab][Dab][Dab][Dab][dL]L[Dab][Dab]T; disulfide 3-12; lactam 17-C, N-14) | 0.5 | 2 | 8 | 0.5 | 1 | 0.5 | 2 |  | <1
